Here are results for 1 molecule from patent US12576093B2, “Pharmaceutical composition for subcutaneous administration” (MANNKIND CORPORATION, priority 2019, dated 2026).

Like-named read-outs stand apart in the source and are kept apart here.

The conditions of data set [1]: dog, in vivo, sc, 0.837 mg/kg.
The nature of the next data set: in vivo. The following applies: male, Beagle, dog, sc, 0.837 mg/kg.
For data set [2] the following is noted: cited from earlier work.
For data set [3] the following is noted: cited from earlier work. This is another data set of the same source.

Turning to `CN1CCc2cccc3c2[C@H]1Cc1ccc(O)c(O)c1-3` [Apomorphine], the Cmax in data set [1] is 3.41 ng(mL. Also, the AUC(0-t) in “in vivo” (AUClast) was 82.9 ng·h/mL. The molecule further showed an MRT last in the data set “in vivo” (MRTlast) of 24.4 h. In the data set “in vivo” (Tmax), this molecule yielded a tmax of 30 h. In addition, the Stability result in data set [2] (exposure to light and air (wrapped cell r15-r17: gradually acquires a green color)) is “acquires a green color on”; in data set [2] (recommended storage conditions (protect from light)), “Stable under recommended”. Besides, the Solubility result is “insoluble in Toluene” in data set [3] (in Toluene (wrapped cell r23-r24: practically insoluble)); “Sparingly soluble in water” in data set [3] (in alcohol (wrapped cell r19-r20: sparingly soluble in water and in alcohol)); “water at 80°; very slightly” in data set [3] (in chloroform (wrapped cell r21-r22: very slightly soluble)); “water at 80°; very slightly” in data set [3] (in ether (wrapped cell r21-r23: very slightly soluble)); “Sparingly soluble in water” in data set [3] (in water).
